Target: ATP-dependent translocase ABCB1 (Homo sapiens, UniProt P08183)
Experiment: TP_TRANSPORTER: increase in mitoxantrone intracellular accumulation (Mitoxantrone: 3 uM, VX-710: 2.5 uM) in A2780/Dx5b cells
Assay type: functional, cell-based

Chain of ATP-dependent translocase ABCB1 (P08183 whole entry): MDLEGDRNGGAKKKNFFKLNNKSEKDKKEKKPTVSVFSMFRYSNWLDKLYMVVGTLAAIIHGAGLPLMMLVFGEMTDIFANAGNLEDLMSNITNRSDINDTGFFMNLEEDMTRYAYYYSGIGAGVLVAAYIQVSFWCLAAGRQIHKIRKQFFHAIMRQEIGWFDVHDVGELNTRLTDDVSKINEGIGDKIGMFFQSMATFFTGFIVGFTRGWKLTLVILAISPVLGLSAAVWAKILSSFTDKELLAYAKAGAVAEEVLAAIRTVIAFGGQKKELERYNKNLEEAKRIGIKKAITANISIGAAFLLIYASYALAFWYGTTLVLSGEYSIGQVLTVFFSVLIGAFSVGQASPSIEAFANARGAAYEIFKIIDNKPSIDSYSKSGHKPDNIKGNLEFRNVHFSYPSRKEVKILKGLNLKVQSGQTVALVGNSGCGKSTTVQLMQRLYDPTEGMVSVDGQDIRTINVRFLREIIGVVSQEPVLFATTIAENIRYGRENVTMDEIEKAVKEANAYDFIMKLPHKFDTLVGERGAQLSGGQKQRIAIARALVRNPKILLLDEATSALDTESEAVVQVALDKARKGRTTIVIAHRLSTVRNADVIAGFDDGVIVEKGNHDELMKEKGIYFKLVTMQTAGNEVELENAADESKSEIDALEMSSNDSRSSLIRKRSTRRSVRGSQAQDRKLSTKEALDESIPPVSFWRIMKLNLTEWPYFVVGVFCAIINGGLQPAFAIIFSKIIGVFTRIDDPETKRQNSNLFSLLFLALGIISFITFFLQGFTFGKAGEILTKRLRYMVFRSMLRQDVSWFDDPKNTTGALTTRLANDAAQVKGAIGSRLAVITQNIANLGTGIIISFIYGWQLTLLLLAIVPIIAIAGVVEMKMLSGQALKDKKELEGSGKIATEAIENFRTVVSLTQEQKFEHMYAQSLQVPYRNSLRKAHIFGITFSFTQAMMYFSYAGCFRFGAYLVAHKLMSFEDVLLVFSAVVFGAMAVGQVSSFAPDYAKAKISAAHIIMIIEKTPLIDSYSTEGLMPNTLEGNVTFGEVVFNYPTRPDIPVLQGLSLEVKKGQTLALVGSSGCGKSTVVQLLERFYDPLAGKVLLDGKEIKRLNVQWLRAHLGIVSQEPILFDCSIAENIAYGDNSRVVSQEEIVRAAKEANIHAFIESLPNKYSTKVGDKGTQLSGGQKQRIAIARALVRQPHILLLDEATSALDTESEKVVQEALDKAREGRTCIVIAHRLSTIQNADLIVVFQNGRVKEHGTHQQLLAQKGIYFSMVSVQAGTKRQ

SMILES: COc1cc(C(=O)C(=O)N2CCCC[C@H]2C(=O)OC(CCCc2cccnc2)CCCc2cccnc2)cc(OC)c1OC [BIRICODAR]
- Activity: inhibitor [+]

Source: ChEMBL document CHEMBL2074240, “VX-710 (biricodar) increases drug retention and enhances chemosensitivity in resistant cells overexpressing P-glycoprotein, multidrug resistance protein, and breast cancer resistance protein” (Clin Cancer Res, 2004)
